Measurements reported in patent US4540699A, “N-Substituted pyridinones having histamine H2 -antagonist activity” (Smith Kline & French Laboratories Limited, priority 1982, dated 1985).

System: histamine H2 -receptors
Assay: inhibition of histamine-stimulated gastric acid secretion in urethane-anaesthetised rats after intraduodenal and intravenous injection
Type: in vivo, rat
Details: ratio intraduodenal/intravenous dose for 50% inhibition; rats anaesthetised with urethane
Experimental: The inhibition of histamine-stimulated secretion of gastric acid in rats anaesthetised with urethane was measured after administration of test compounds by intraduodenal injection and intravenous injection. For the compound of Example 2 the intraduodenal dose required to produce 50% inhibition was only 3 times the intravenous dose required to produce a similar effect, and for the compound of Example 10 the intraduodenal dose required was 10 times the intravenous dose. In contrast the compound of Example 7 of EP-A-3677 required an intraduodenal dose 500 times that of the intravenous dose required to inhibit acid secretion by 50%. Good activity after intraduodenal injection is indicative that there will good activity after oral administration.

SMILES	intraduodenal dose required to produce 50% inhibition of acid secretion relative to the intravenous dose [times]
CN(C)Cc1ccc(CSCCNc2ncc(Cc3ccn(C)c(=O)c3)c(=O)[nH]2)o1 [Example 2, 2-[2-(2-Dimethylaminomethyl-5-furylmethylthio)ethylamino]-5-(1-methyl-2-oxopyridin-4-ylmethyl)pyrimidin-4-one]	3
Cn1ccc(Cc2cnc(NCCCOc3cccc(CN4CCCCC4)c3)[nH]c2=O)cc1=O [Example 10, 2-[3-[3-(Piperidinomethyl)phenoxy]propylamino]-5-(1-methyl-2-oxopyridin-4-ylmethyl)pyrimidin-4-one]	10
